Data: patent EP0531958A1, “6-Aminoquinolones, their synthesis and their use as antibacterial agents” (MEDIOLANUM FARMACEUTICI S.P.A., priority 1991, dated 1993)
In brackets after ≈: the same amount, converted by molar mass. Like-named read-outs stand apart in the source and are kept apart here.

Columns and labels:
Format in all cases: cell-based
Escherichia coli ISF 432 = assay: MIC test, agar dilution with Steers multiwell inoculator; conditions: ISF432, TSA dishes, 24 h at 35°C, read-out: Minimum Inhibiting Concentration
Experimental: (§1) As to the antibacterial activity, there was determined the Least (Minimum) Inhibiting Concentration (MIC), by working according to the following operative conditions.
(§2) There were used suspensions of test germs (5 gram-positive and 15 gram-negative) having a known titre, kept freezed at -80°C and diluted, at the time of use, in peptonized water up to a concentration of 1-2.10⁷ cfu/ml.
(§3) A few mg of the products, according to the invention were weighed sufficient for preparing parent solutions in DMSO + NaOH (1N) containing 2560 µg/ml (64µg/ml/dish). From the thus prepared parent solutions there were prepared 12 serial dilutions (1:2) down to the concentration of 1.25 µg/ml.
(§4) 0.5 ml of the different dilutions of each product were distributed on dishes containing 19.5 ml of agarized medium (TSA), maintained in a fluid state at the temperature of 50°C. After slight stirring, the dishes were made to solidify and dry under hood (laminar flow).
(§5) The MIC tests (Least or "Minimum" Inhibiting Concentration) were performed by using a Steers multiwell inoculator having 36 wells, each containing 200 µl of bacterial suspension.
(§6) After inoculation, the dishes were placed into a thermostat and checked after 24 h of incubation at 35°C.
(§7) The MIC is defined as the lowermost product concentration (µg/ml) inhibiting the visible growth of the microorganisms.

[1] = tested on: Staphylococcus aureus ATCC 6538; assay: as above; conditions: ATCC6538, TSA dishes, 24 h at 35°C, read-out: Minimum Inhibiting Concentration
Experimental: as §1, §2, §3, §4, §5, §6, §7

[2] = tested on: Klebsiella pneumoniae ATCC 10031; assay: as above; conditions: ATCC10031, TSA dishes, 24 h at 35°C, read-out: Minimum Inhibiting Concentration
Experimental: as §1, §2, §3, §4, §5, §6, §7

[3] = tested on: Acinebacter calcoloaceticus OSMPV 1130; assay: as above; conditions: TSA dishes, 24 h at 35°C, read-out: Minimum Inhibiting Concentration
Experimental: as §1, §2, §3, §4, §5, §6, §7

Proteus vulgaris CNUR 6 = assay: as above; conditions: CNUR6, TSA dishes, 24 h at 35°C, read-out: Minimum Inhibiting Concentration
Experimental: as §1, §2, §3, §4, §5, §6, §7

[4] = tested on: Staphylococcus aureus MPR 5; assay: as above; conditions: MPR5, TSA dishes, 24 h at 35°C, read-out: Minimum Inhibiting Concentration
Experimental: as §1, §2, §3, §4, §5, §6, §7

Escherichia coli 120 = assay: as above; conditions: TSA dishes, 24 h at 35°C, read-out: Minimum Inhibiting Concentration
Experimental: as §1, §2, §3, §4, §5, §6, §7

Escherichia coli CNUR 1 = assay: as above; conditions: CNUR1, TSA dishes, 24 h at 35°C, read-out: Minimum Inhibiting Concentration
Experimental: as §1, §2, §3, §4, §5, §6, §7

[5] = tested on: Escherichia coli ATCC 8739; assay: as above; conditions: ATCC8739, TSA dishes, 24 h at 35°C, read-out: Minimum Inhibiting Concentration
Experimental: as §1, §2, §3, §4, §5, §6, §7

[6] = tested on: Pseudomonas aeruginosa ATCC 9027; assay: as above; conditions: ATCC9027, TSA dishes, 24 h at 35°C, read-out: Minimum Inhibiting Concentration
Experimental: as §1, §2, §3, §4, §5, §6, §7

Escherichia coli CNUR 8 = assay: as above; conditions: CNUR8, TSA dishes, 24 h at 35°C, read-out: Minimum Inhibiting Concentration
Experimental: as §1, §2, §3, §4, §5, §6, §7

[7] = tested on: Pseudomonas aeruginosa CNUR 4; assay: as above; conditions: CNUR4, TSA dishes, 24 h at 35°C, read-out: Minimum Inhibiting Concentration
Experimental: as §1, §2, §3, §4, §5, §6, §7

[8] = tested on: Enterobacter cloacae OMNF 1174; assay: as above; conditions: OMNF1174, TSA dishes, 24 h at 35°C, read-out: Minimum Inhibiting Concentration
Experimental: as §1, §2, §3, §4, §5, §6, §7

[9] = tested on: Pseudomonas aeruginosa CNUR 2; assay: as above; conditions: CNUR2, TSA dishes, 24 h at 35°C, read-out: Minimum Inhibiting Concentration
Experimental: as §1, §2, §3, §4, §5, §6, §7

[10] = tested on: Enterobacter cloacae OMNF 1153; assay: as above; conditions: OMNF1153, TSA dishes, 24 h at 35°C, read-out: Minimum Inhibiting Concentration
Experimental: as §1, §2, §3, §4, §5, §6, §7

[11] = tested on: Staphylococcus epidermidis CPHL A2; assay: as above; conditions: CPHLA2, TSA dishes, 24 h at 35°C, read-out: Minimum Inhibiting Concentration
Experimental: as §1, §2, §3, §4, §5, §6, §7

[12] = tested on: Providencia stuardii CNUR 5; assay: as above; conditions: CNUR5, TSA dishes, 24 h at 35°C, read-out: Minimum Inhibiting Concentration
Experimental: as §1, §2, §3, §4, §5, §6, §7

[13] = tested on: Streptococcus facealis LEP Br.; assay: as above; conditions: TSA dishes, 24 h at 35°C, read-out: Minimum Inhibiting Concentration
Experimental: as §1, §2, §3, §4, §5, §6, §7

[14] = tested on: Staphylococcus epidermidis HCF Berset C.; assay: as above; conditions: TSA dishes, 24 h at 35°C, read-out: Minimum Inhibiting Concentration
Experimental: as §1, §2, §3, §4, §5, §6, §7

Gram - = assay: MIC test, average over the 15 gram-negative test germs; conditions: 24 h
Experimental: as §1, §2, §3, §4, §5, §6, §7

Gram + = assay: MIC test, average over the 5 gram-positive test germs; conditions: 24 h
Experimental: as §1, §2, §3, §4, §5, §6, §7

[15] = geometrical average of the MIC over the 15 Gram - strains, read-out: Geometrical Average
[16] = mean log of the MIC over the 15 Gram - strains, read-out: Log (converted)
[17] = geometrical average of the MIC over the 5 Gram + strains, read-out: Geometrical Average

| Structure (SMILES) | MIC (Escherichia coli ISF 432) | MIC [1] | MIC [2] | MIC [3] | MIC (Proteus vulgaris CNUR 6) | MIC [4] | MIC (Escherichia coli 120) | MIC (Escherichia coli CNUR 1) | MIC [5] | MIC [6] | MIC (Escherichia coli CNUR 8) | MIC [7] | MIC [8] | MIC [9] | MIC [10] | MIC [11] | MIC [12] | MIC [13] | MIC [14] | MIC (Gram -; [15]) | also measured |
| --- | --- | --- | --- | --- | --- | --- | --- | --- | --- | --- | --- | --- | --- | --- | --- | --- | --- | --- | --- | --- | --- |
| Nc1cc2c(=O)c(C(=O)O)cn(-c3ccc(F)cc3)c2cc1N1CCSCC1 [Compound 51] | 0.03 µg/mL (≈ 0.0751 µM) | 0.5 µg/mL (≈ 1.25 µM) | 0.03 µg/mL (≈ 0.0751 µM) | 4 µg/mL (≈ 10 µM) | 128 µg/mL (≈ 320 µM) | 0.5 µg/mL (≈ 1.25 µM) | 0.5 µg/mL (≈ 1.25 µM) | 4 µg/mL (≈ 10 µM) | 0.06 µg/mL (≈ 0.15 µM) | 128 µg/mL (≈ 320 µM) | 0.5 µg/mL (≈ 1.25 µM) | 128 µg/mL (≈ 320 µM) | 4 µg/mL (≈ 10 µM) | 128 µg/mL (≈ 320 µM) | 4 µg/mL (≈ 10 µM) | 2 µg/mL (≈ 5.01 µM) | 4 µg/mL (≈ 10 µM) | 64 µg/mL (≈ 160 µM) | 2 µg/mL (≈ 5.01 µM) | 3.01 µg/mL (≈ 7.53 µM) | MIC (Gram -; [16]): 3.01 µg/mL (≈ 7.53 µM); MIC (Gram +; [17]): 2.3 µg/mL; MIC (Gram +; read-out: Log (converted)): 2.3 µg/mL (≈ 5.75 µM) |
| Nc1cc2c(=O)c(C(=O)O)cn(-c3ccc(F)cc3)c2cc1N1CCc2ccccc2C1 [Compound 52, 6-amino-1-(4-fluorophenyl)-7-[2-(1,2,3,4-tetrahydroisoquinolinyl)]-1,4-dihydro-4-oxo-quinoline carboxylic acid] | 0.12 µg/mL (≈ 0.279 µM) | 0.5 µg/mL (≈ 1.16 µM) | 0.12 µg/mL (≈ 0.279 µM) | 4 µg/mL (≈ 9.31 µM) | 128 µg/mL (≈ 298 µM) | 1 µg/mL (≈ 2.33 µM) | 1 µg/mL (≈ 2.33 µM) | 4 µg/mL (≈ 9.31 µM) | 0.12 µg/mL (≈ 0.279 µM) | 128 µg/mL (≈ 298 µM) | 1 µg/mL (≈ 2.33 µM) | 128 µg/mL (≈ 298 µM) | 4 µg/mL (≈ 9.31 µM) | 128 µg/mL (≈ 298 µM) | 8 µg/mL (≈ 18.6 µM) | 2 µg/mL (≈ 4.66 µM) | 8 µg/mL (≈ 18.6 µM) | 64 µg/mL (≈ 149 µM) | 4 µg/mL (≈ 9.31 µM) | 4.56 µg/mL (≈ 10.6 µM) | MIC (Gram -; [16]): 4.56 µg/mL (≈ 10.6 µM); MIC (Gram +; [17]): 3.03 µg/mL; MIC (Gram +; read-out: Log (converted)): 3.03 µg/mL (≈ 7.06 µM) |
| Nc1cc2c(=O)c(C(=O)O)cn(C3CC3)c2cc1N1CCC(O)CC1 [Compound 16] | 0.03 µg/mL (≈ 0.0874 µM) | 4 µg/mL (≈ 11.6 µM) | 0.03 µg/mL (≈ 0.0874 µM) | 2 µg/mL (≈ 5.82 µM) | 128 µg/mL (≈ 373 µM) | 4 µg/mL (≈ 11.6 µM) | 0.5 µg/mL (≈ 1.46 µM) | 2 µg/mL (≈ 5.82 µM) | 0.03 µg/mL (≈ 0.0874 µM) | 8 µg/mL (≈ 23.3 µM) | 1 µg/mL (≈ 2.91 µM) | 128 µg/mL (≈ 373 µM) | 2 µg/mL (≈ 5.82 µM) | 128 µg/mL (≈ 373 µM) | 2 µg/mL (≈ 5.82 µM) | 2 µg/mL (≈ 5.82 µM) | 8 µg/mL (≈ 23.3 µM) | 8 µg/mL (≈ 23.3 µM) | 4 µg/mL (≈ 11.6 µM) | 2.08 µg/mL (≈ 6.05 µM) | MIC (Gram -; [16]): 2.07 µg/mL (≈ 6.04 µM); MIC (Gram +; [17]): 4 µg/mL; MIC (Gram +; read-out: Log (converted)): 4 µg/mL (≈ 11.6 µM) |
